In patent US4235902A, “Pesticidal carbamate esters of 5-oximino-1,3-oxazolidin-4-ones” (priority 1976, dated 1980):

Tests used:
[1] = tested on: house flies (Musca domestica, L.); test: Fly bait test; type: in vivo; parameters: key: A: excellent control; B: partial control; C: no control; conditions: 500 parts per million in sugar bait; twenty four hours
Protocol: (§1) Suspensions of the test compounds were prepared by dissolving one gram of compound in 50 milliliters of acetone in which had been dissolved 0.1 gram (10 percent of the weight of compound) of an alkylphenoxy polyethoxyethanol surfactant, as an emulsifying or dispersing agent. The resulting solution was mixed into 150 milliliters of water to give roughtly 200 milliliters of a suspension containing the compound in finely divided form. The thus-prepared stock suspension contained 0.5 percent by weight of compound. The test concentrations in parts per million by weight employed in the tests described hereinbelow were obtained by appropriate dilutions of the stock suspension with water. The test procedures were as follows:
Four to six day old adult house flies (Musca domestica, L.), reared according to the specifications of the Chemical Specialities Manufacturing Association (Blue Book, McNair-Dorland Co., N. Y. 1954; pages 243-244, 261) under controlled conditions of 80±5° F. and 50±5 per cent relative humidity, were the test insects. The flies were immobilized by anesthetizing with carbon dioxide and twenty five immobilized individuals, males and females, were transferred to a cage consisting of a standard food strainer about five inches in diameter which was inverted over a wrapping-paper-covered surface. The test compounds were formulated by diluting the stock suspension with a 10 per cent (by weight) sugar solution to give a suspension containing 500 parts of test compound per million parts of final formulation, by weight. Ten milliliters of the test formulation were added to a souffle cup containing a one-inch square of an absorbent cotton pad. This bait cup was introduced and centered on the blotting paper under the food strainer prior to admitting the anesthetized flies. The caged flies were allowed to feed on the bait for twenty four hours, at a temperature of 80±5° F. and the relative humidity of 50±5 per cent.
(§2) In these tests the pesticidal activity of the compounds against aphid, mite, Southern Armyworm, Mexican Bean Beetle, nematodes and house fly was rated as follows: […]

[2] = tested on: bean aphid (Aphis fabae Scop.); test: Bean aphid foliage spray test; type: in vivo; parameters: key: A: excellent control; B: partial control; C: no control; conditions: 500 parts per million, 24 hour
Protocol: as §1
BEAN APHID FOLIAGE SPRAY TEST
Adults and nymphal stages of the bean aphid (Aphis fabae Scop.) reared on potted dwarf nasturtium plants at 64°-70° F. and 50-70 per cent relative humidity, constituted the test insects. For testing purposes, the number of aphids per pot was standardized to 100-150 by trimming plants containing excess aphids.
The test compounds were formulated by diluting the stock suspension with water to give a suspension containing 500 parts of test compound per million parts of final formulation.
The potted plants (one pot per compound tested) infested with 100-150 aphids, were placed on a revolving turntable and sprayed with […] of test compound formulation by use of a DeVilbiss spray gun set at 40 psig. air pressure. This application, which lasted 25 seconds, was sufficient to wet the plants to run-off. As a control, 100-110 milliliters of a water-acetone-emulsifier solution containing no test compound were also sprayed on infested plants. After spraying, the pots were placed on their sides on a sheet of white standard mimeograph paper which had been previously ruled to facilitate counting. Temperature and humidity in the test room during the 24 hour holding period were 65°-70° F. and 50-70 per cent, respectively. Aphids which fell onto the paper and were unable to remain standing after being uprighted were considered dead. Aphids remaning on the plants were observed closely for movement and those which were unable to move the length of the body upon stimulation by prodding were considered dead. Per cent mortality was recorded for various concentration levels.
as §2

[3] = tested on: Mexican bean beetle (Epilachna varivestis, Muls.); test: Mexican bean beetle leaf spray test; type: in vivo; parameters: key: A: excellent control; B: partial control; C: no control; conditions: 500 parts per million, fourth instar larvae, three days
Protocol: as §1
MEXICAN BEAN BEETLE LEAF SPRAY TEST
Fourth instar larvae of the Mexican bean beetle (Epilachna varivestis, Muls.), reared on Tendergreen bean plants at a temperature of 80±5° F. and 50±5 per cent relative humidity, were the test insects.
The test compounds were formulated by diluting the stock suspension with water to give a suspension containing 500 parts of test compound per million parts of final formulation. Potted Tendergreen bean plants of standard height and age were placed on a revolving turntable and sprayed with 100-110 milliliters of test compound formulation by use of a DeVilbiss spray gun set at 10 psig air pressure. This application, which lasted 25 seconds, was sufficient to wet plants to run-off. As a control 100-110 milliliters of a water-acetone-emulsifier solution containing no test compound were also sprayed on infested plants. When dry, the paired leaves were separated and each was placed in a 9 centimeter Petri dish lined with moistened filter paper. Five randomly selected larvae were introduced into each dish, and the dishes were closed. The closed dishes were labeled and held at a temperature of 80±5° F. for three days. Although the larvae could easily consume the leaf within 24 to 48 hours, no more food was added. Larvae which were unable to move the length of the body, even upon stimulation, were considered dead.
as §2

[4] = tested on: root-knot nematode, Meloidogyne incognita var. acrita; test: Nematocide test; type: in vivo; parameters: key: A: excellent control; B: partial control; C: no control; conditions: 3.33 m.g. per jar; galling of cucumber roots rated after approximately 3 weeks
Protocol: The test organism used was the infective migratory larvae of the root-knot nematode, Meloidogyne incognita var. acrita, reared in the greenhouse on roots of cucumber plants. Infected plants were removed from the culture, and the roots are chopped very finely. A small amount of this inoculum was added to a pint jar containing approximately 180 cc. of soil. The jars were capped and incubated for one week at room temperature. During this period eggs of the nematode were hatched, and the larval forms migrated into the soil.
Ten ml. of the test formulation were added to each of the two jars for each dosage tested. Following the addition of chemical, the jars were capped, and the contents thoroughly mixed on a ball mill for 5 minutes.
The test compounds were formulated by a standard procedure of solution in acetone addition of an emulsifier, and dilution with water. Primary screening tests were conducted at 3.33 m.g. of the test compound per jar.
The jars were left capped at room temperature for a period of 48 hours, and the contents then transferred to 3 inch pots. Subsequently, the pots were seeded to cucumber as an indicator crop and placed in the greenhouse where they were cared for in the normal fashion for approximately 3 weeks.
The cucumber plants were then taken from the pots, the soil removed from the roots, and the amount of galling visually rated.
as §2

[5] = tested on: two-spotted mite (Tetranychus urticae Koch); test: Mite foliage spray test; type: in vivo; parameters: key: A: excellent control; B: partial control; C: no control; conditions: 500 parts per million, six days
Protocol: as §1
Adults and nymphal stages of the two-spotted mite (Tetranychus urticae Koch), reared on Tendergreen bean plants at 80±5 per cent relative humidity, were the test organisms. Infested leaves from a stock culture were placed on the primary leaves of two bean plants six to eight inches in height, growing in a two-and-a-half inch clay pot. 150-200 Mites, a sufficient number for testing, transferred from the excised leaves to the fresh plants in a period of twenty four hours. Following the twenty four hour transfer period, the excised leaves were removed from the infested plants. The test compounds were formulated by diluting the stock suspension with water to give a suspension containing 500 parts of test compound per million parts of final formulation. The potted plants (one pot per compound) were placed on a revolving turntable and sprayed with 100-110 milliliters of test compound formulation by use of a DeVilbiss spray gun set at 40 psig. air pressure. This application, which lasted 25 seconds, was sufficient to wet the plants to run-off. As a control, 100-110 milliliteres of a water solution containing acetone and emulsifier in the same concentrations as the test compound formulation, but containing no test compound, were also sprayed on infested plants. The sprayed plants were held at 80±5 per cent relative humidity for six days, after which a mortality count of motile forms was made. Microscopic examination for motile forms was made on the leaves of the test plants. Any individual which was capable of locomotion upon prodding was considered living.
as §2

[6] = Acute oral (peroral) toxicity to mammals; conditions: in vivo, rat, mortality rate of 50 percent
Protocol: Certain of these compositions were also evaluated to determine their peroral toxicity to mammals. The animal selected for this experiment was the rat. The test results obtained are expressed in terms of the number of milligrams of compositions per kilogram of weight of the animal required to achieve a mortality rate of 50 percent (LD50).

[7] = tested on: southern armyworm (Prodenia eridania, (Cram.)); test: Southern armyworm leaf spray test; type: in vivo; parameters: key: A: excellent control; B: partial control; C: no control; conditions: 500 parts per million, larvae, three days
Protocol: as §1
SOUTHERN ARMYWORM LEAF SPRAY TEST
Larvae of the southern armyworm (Prodenia eridania, (Cram.)), reared on Tendergreen bean plants at a temperature of 80±5° F. and a relative humidity of 50±5 per cent, constituted the test insects.
The test compounds were formulated by diluting the stock suspension with water to give a suspension containing 500 parts of test compound per million parts of final formulation. Potted Tendergreen bean plants of standard height and age were placed on a revolving turntable and sprayed with 100-110 milliliters of test compound formulation by use of a DeVilbiss spray gun set at 10 psig air pressure. This application, which lasted 25 seconds, was sufficient to wet plants to run-off. As a control, 100-110 milliliters of a water-acetone-emulsifier solution containing no test compound were also sprayed on infested plants. When dry, the paired leaves were separated and each one was placed in a 9 centimeter Petri dish lined with moistened filter paper. Five randomly selected larvae were introduced into each dish and the dishes were closed. The closed dishes were labeled and held at 80°-85° F. for three days. Although the larvae could easily consume the whole leaf within twenty-four hours, no more food was added. Larvae which were unable to move the length of the body, even upon stimulation by prodding, were considered dead. Per cent mortality was recorded for various concentration levels.
as §2

Row | SMILES | Biological Activity: Housefly [1] | Biological Activity: Aphid [2] | Biological Activity: Bean Beetle [3] | Biological Activity: Nematode [4] | Biological Activity: Mite [5] | LD50 [6] [mg/kg] | Biological Activity: Southern Army Worm [7]
1 | CCC1COC(=NOC(=O)NC)C(=O)N1C (centres unmarked) | A | A | C | C | A | 23.8 | A
2 | CNC(=O)ON=C1OCC(C)(C)N(C)C1=O | A | A | A | A | A | 126 | C
3 | CN1CCOC(=NOC(=O)N(C)SC(Cl)(Cl)Cl)C1=O [2-[N-Trichloromethanesulfenyl-N-methylcarbamoyloximino]-4-methyltetrahydro-1,4-oxazin-3-one] | A | A | A | A | B | – | C
4 | CCN1CCOC(=NOC(=O)NC)C1=O | A | A | C | C | A | – | C
5 | CCC1COC(=NOC(=O)N(C)SC(Cl)(Cl)Cl)C(=O)N1C (centres unmarked) | A | A | A | A | A | – | C
6 | CNC(=O)ON=C1OC(C)CN(C)C1=O (centres unmarked) [2-Methylcarbamoyloximino-4,-6-dimethyltetrahydro-1,4-oxazin-3-one] | A | A | A | A | A | – | A
7 | CCCN1CCOC(=NOC(=O)NC)C1=O | A | A | B | C | A | – | A
8 | CNC(=O)ON=C1OCCN(C)C1=O [2-Methylcarbamoyloximino-4-methyltetrahydro1,4-oxazin-3-one] | A | A | A | A | A | 343 | A
9 | CN(SC(Cl)(Cl)Cl)C(=O)ON=C1OCC(C)(C)N(C)C1=O [2-[N-Trichloromethanesulfenyl-N-methyl/carbamoyloximino]-4,5,5-trimethyltetrahydro, -1,4-oxazin-3-one] | A | A | B | – | A | 794 | C
10 | CNC(=O)ON=C1OCCN(C(C)C)C1=O | A | A | C | – | C | – | C
